The source of these data is patent US9745282B2, “Indoline compounds as aldosterone synthase inhibitors” (Merck Sharp & Dohme Corp., priority 2012, dated 2017).

What all share (assay type): cell-based
Experiment [1] deals with T1, human CYP11B2 (Homo sapiens (Human), UniProt P19099). Kind of experiment: V79-Human-CYP11B2 cell assay. The settings on record: V79 cells expressing human CYP11B2; 125 nM 11-deoxycorticosterone; aldosterone by HTRF. Here is the method:
(§1) V79 cell lines stably expressing the either the human CYP11B2 or the human CYP11B1 enzyme were generated using a standard transfection protocol. V79 cells were transfected with plasmids pTriEx3-Hygro-hCyp11B2 or pTriEx3-Hygro-hCyp11B1 using Lipofectamine2000 reagent. V79 cells that stably express the human CYP11B2 or human CYP11B1 enzyme were selected for and maintained in DMEM supplemented with 10% FBS and 400 μg/mL hygromycin for 2 weeks. Single cell clones were generated by infinite dilution in DMEM supplemented with 10% FBS and 400 μg/mL hygromycin until single colonies were obtained. […] For testing of inhibitors, cells were harvested at 80% confluency with 0.05% Trypsan-EDTA, washed once in PBS, and reconstituted in DMEM+0.1% BSA media at a cell concentration of 600,000 cells/mL for the CYP11B2 assay and 280,000 cells/mL for the CYP11B1 assay. 25 μL of cells were added to a 384 well tissue culture treated plate and mixed with 0.3 μL of inhibitor or DMSO (1% final DMSO concentration) for 1 hour at 37° C., 5% CO2. After pre-incubation with inhibitor, the reaction was initiated by adding 5 μL of substrate (final concentration of 125 nM 11-deoxycorticosterone for the CYP11B2 assay or 250 nM 11-deoxycortisol for the CYP11B1 assay). The reaction was carried out for 3 hours at 37° C., 5% CO2 and was stopped by harvesting the supernatants. The amount of product in the supernatant (aldosterone for CYP11B2 assay and cortisol for the CYP11B1 assay) was measured using HTRF-based assay kit (Aldosterone HTRF-CisBio#64ALDPEB, Cortisol HTRF-CisBio #63IDC002-CORT). IC50s for the inhibitor were determined by plotting the amount of product formed against the concentration of inhibitor using sigmoidal dose-response curve (variable slope) fit in GraphPad.
(In TR-FRET formats the signal depends on donor and acceptor labels being close together.)

For experiment [2], the target named is T2, human CYP11B1 (Homo sapiens (Human), UniProt P15538). Kind of experiment: V79-Human-CYP11B1 cell assay. The settings on record: V79 cells expressing human CYP11B1; 250 nM 11-deoxycortisol; cortisol by HTRF. As to the method: V79 cell lines stably expressing the either the human CYP11B2 or the human CYP11B1 enzyme were generated using a standard transfection protocol. V79 cells were transfected with plasmids pTriEx3-Hygro-hCyp11B2 or pTriEx3-Hygro-hCyp11B1 using Lipofectamine2000 reagent. V79 cells that stably express the human CYP11B2 or human CYP11B1 enzyme were selected for and maintained in DMEM supplemented with 10% FBS and 400 μg/mL hygromycin for 2 weeks. Single cell clones were generated by infinite dilution in DMEM supplemented with 10% FBS and 400 μg/mL hygromycin until single colonies were obtained. Clones V79-hCYP11B2-CLE9 and V79-hCYP11B1-CL8C7, were determined to produce the most aldosterone and cortisol, respectively, and were selected for inhibitor screening. For testing of inhibitors, cells were harvested at 80% confluency with 0.05% Trypsan-EDTA, washed once in PBS, and reconstituted in DMEM+0.1% BSA media at a cell concentration of 600,000 cells/mL for the CYP11B2 assay and 280,000 cells/mL for the CYP11B1 assay. 25 μL of cells were added to a 384 well tissue culture treated plate and mixed with 0.3 μL of inhibitor or DMSO (1% final DMSO concentration) for 1 hour at 37° C., 5% CO2. After pre-incubation with inhibitor, the reaction was initiated by adding 5 μL of substrate (final concentration of 125 nM 11-deoxycorticosterone for the CYP11B2 assay or 250 nM 11-deoxycortisol for the CYP11B1 assay). The reaction was carried out for 3 hours at 37° C., 5% CO2 and was stopped by harvesting the supernatants. The amount of product in the supernatant (aldosterone for CYP11B2 assay and cortisol for the CYP11B1 assay) was measured using HTRF-based assay kit (Aldosterone HTRF-CisBio#64ALDPEB, Cortisol HTRF-CisBio #63IDC002-CORT). IC50s for the inhibitor were determined by plotting the amount of product formed against the concentration of inhibitor using sigmoidal dose-response curve (variable slope) fit in GraphPad.
T2 sequence (P15538 25-503): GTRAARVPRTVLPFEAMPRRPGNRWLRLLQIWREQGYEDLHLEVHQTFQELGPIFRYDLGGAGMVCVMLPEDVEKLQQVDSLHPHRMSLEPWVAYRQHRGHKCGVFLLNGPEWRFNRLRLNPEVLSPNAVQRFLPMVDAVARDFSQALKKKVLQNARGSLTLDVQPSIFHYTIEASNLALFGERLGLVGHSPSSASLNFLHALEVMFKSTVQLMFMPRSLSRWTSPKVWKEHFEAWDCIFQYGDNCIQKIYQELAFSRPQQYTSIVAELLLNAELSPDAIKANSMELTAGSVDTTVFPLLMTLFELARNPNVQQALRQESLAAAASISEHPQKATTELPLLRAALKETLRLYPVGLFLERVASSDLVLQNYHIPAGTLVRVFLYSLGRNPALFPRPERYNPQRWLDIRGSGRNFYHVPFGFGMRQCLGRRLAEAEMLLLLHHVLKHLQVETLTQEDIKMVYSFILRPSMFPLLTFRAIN

Experiment [3] addresses T2, human CYP11B1. In words: V79-Human-CYP11B1 cell assay, modified protocol. The note with it: V79 cells expressing human CYP11B1. As to the method:
as §1
(§2) For the CYP11B2 assay, cells were reconstituted in DMEM+0.1% BSA media at a cell concentration of 600,000 cells/mL and for the CYP11B1 assay cells were reconstituted in DMEM+0.1% BSA media at a cell concentration of 280,000 cells/mL. 25 μl of cells were added to a 384 well tissue culture treated plate and mixed with […] or DMSO (1% final DMSO concentration) for 1 hour at 37° C., 5% CO2.

For experiment [4], the target named is T1, human CYP11B2. In words: V79-Human-CYP11B2 cell assay, modified protocol. The note with it: V79 cells expressing human CYP11B2. As to the method: as §1, §2

T1 sequence (P19099 25-503): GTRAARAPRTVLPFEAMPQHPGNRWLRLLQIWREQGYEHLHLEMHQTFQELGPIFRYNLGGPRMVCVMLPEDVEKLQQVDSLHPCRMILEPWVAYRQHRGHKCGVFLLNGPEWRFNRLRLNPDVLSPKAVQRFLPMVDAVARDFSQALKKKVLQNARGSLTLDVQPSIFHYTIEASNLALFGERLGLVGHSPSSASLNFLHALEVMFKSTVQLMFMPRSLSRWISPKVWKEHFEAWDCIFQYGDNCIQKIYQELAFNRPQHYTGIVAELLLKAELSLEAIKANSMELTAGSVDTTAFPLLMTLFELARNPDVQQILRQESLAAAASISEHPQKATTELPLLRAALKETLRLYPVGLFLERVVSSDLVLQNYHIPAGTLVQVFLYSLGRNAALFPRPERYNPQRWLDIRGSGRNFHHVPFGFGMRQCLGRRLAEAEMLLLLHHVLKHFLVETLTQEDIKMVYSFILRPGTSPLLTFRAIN

For the compound `CC(=O)N1CCc2cc(-c3cncc(F)c3)ccc21` [Example 1, 1-(5-(5-fluoropyridin-3-yl)indolin-1-yl)ethanone], the concentration for half-maximal inhibition (IC50) – broadly, the concentration that gives 50% inhibition – on human CYP11B2 [1] was 0.11 µM; against human CYP11B1 [2], over 10 µM.

Consider `CC(=O)N1CCc2cc(-c3cncc(F)c3)cc(Cl)c21` [Example 2, 1-(7-chloro-5-(5-fluoropyridine-3-yl)indolin-1-yl)ethanone], for which the figures for the IC50 on human CYP11B2 [1] and against human CYP11B1 [2] were 0.012 µM and 7.9 µM, respectively.

As for `COc1cncc(-c2cc(Cl)c3c(c2)CCN3C(C)=O)c1` [Example 3, 1-(7-chloro-5-(5-methoxypyridin-3-yl)indolin-1-yl)ethanone], the IC50 against human CYP11B2 [1] was 0.0041 µM; against human CYP11B1 [2] it was 0.13 µM.

For `CC(=O)N1CCc2cc(-c3cncc([C@](C)(O)C(F)(F)F)c3)cc(Cl)c21` [Example 4, (S)-1-(7-chloro-5-(5-(1,1,1,-trifluoro-2-hydroxypropan-2-yl)pydine-3-yl)indolin-1-yl)ethanone], the IC50 at human CYP11B2 [1] turned out to be 0.0012 µM; against human CYP11B1 [2], 0.026 µM.

For the compound `CC(=O)N1CCc2cc(-c3cncc([C@@](C)(O)C(F)(F)F)c3)cc(Cl)c21` [Example 5, (R)-1-(7-chloro-5-(5-(1,1,1,-trifluoro-2hydroxypropan-2-yl)pyridine-3-yl)indolin-1-yl)ethanone], the IC50 against human CYP11B2 [1] came out at 0.0024 µM; at human CYP11B1 [2], 0.053 µM.

Regarding `CC(=O)N1CCc2cc(-c3cncc(C(F)(F)F)c3)cc(Cl)c21` [Example 6, 1-(7-chloro-5-(5-(triuoromethyl)pyridine-3-yl)indolin-1-yl)ethanone], the IC50 is 0.0075 µM against human CYP11B2 [1] and 0.4 µM at human CYP11B1 [2].

Regarding `CC(=O)N1CCc2cc(-c3cnccc3C(F)(F)F)cc(Cl)c21` [Example 7, 1-(7-chloro-5-(4-(trifluoromethyl)pyridine-3-yl)indolin-1-yl)ethanone], the figures for the IC50 at human CYP11B2 [1] and on human CYP11B1 [2] were 0.005 µM and 0.61 µM, respectively.

In the case of `CCc1c(F)cncc1-c1cc(Cl)c2c(c1)CCN2C(C)=O` [Example 9, 1-(7-chloro-5-(4-ethyl-5-fluoropyridin-3-yl)indolin-1-yl)ethanone], the values for the IC50 at human CYP11B2 [1] and against human CYP11B1 [2] were 0.0023 µM and 0.4 µM, respectively.

Regarding `CC(=O)N1CCc2cc(-c3cncc(C#N)c3C)cc(Cl)c21` [Example 10, 5-(1-acetyl-7-chloroindolin-5-yl) 4-methylnicotinotrile], the IC50 was determined as 0.035 µM against human CYP11B2 [1] and 1.6 µM against human CYP11B1 [2].

On to `CC(=O)N1CCc2cc(-c3cncc4ccccc34)cc(Cl)c21` [Example 11, 1-(7-chloro-5-(isoquinolin-4-yl)indolin-1-yl)ethanone], for which the IC50 on human CYP11B2 [1] is 0.0007 µM; at human CYP11B1 [2] it was 0.06 µM.

In the case of `CC(=O)N1CCc2cc(-c3cccnc3)cc(F)c21` [Example 12, 1-(7-fluoro-5-(pyridine-3-yl)indolin-1-yl) ethanone], the figures for the IC50 against human CYP11B2 [1] and against human CYP11B1 [2] were 0.0049 µM and 0.9 µM, respectively.

On to `CC(=O)N1CCc2cc(-c3cncc([C@](C)(O)C(F)(F)F)c3)cc(F)c21` [Example 13, (S)-1-(7-fluoro-5-(5-(1,1,1-trifluoro-2-hydroxypropan-2-yl)pyridin-3-yl)indolin-1-yl)ethanone], for which the IC50 was 0.0021 µM against human CYP11B2 [1] and 0.023 µM against human CYP11B1 [2].

For the compound `CC(=O)N1CCc2cc(-c3cncc([C@@](C)(O)C(F)(F)F)c3)cc(F)c21` [Example 14, (R)-1-(7-fluoro-5-(5-(1,1,1-trifluoro-2-hydroxypropan-2-yl)pyridin-3-yl)indolin-1-l)ethanone], the results for the IC50 against human CYP11B2 [1] and at human CYP11B1 [2] were 0.0008 µM and 0.013 µM, respectively.

With `CC(=O)N1CCc2cc(-c3cncc(C#N)c3)cc(F)c21` [Example 16, 5-(1-acetyl-7-fluoroindolin-5-yl)nicotinonitrile], the values for the IC50 against human CYP11B2 [1] and against human CYP11B1 [2] were 0.097 µM and over 10 µM, respectively.

As to `CC(=O)N1CCc2cc(-c3cncc(C#N)c3C)cc(F)c21` [Example 17, 5-(1-acetyl-7-fluoroindolin-5-yl)-4-methylnicotino nitrile], the IC50 worked out at 0.012 µM at human CYP11B2 [1] and 0.54 µM on human CYP11B1 [2].

For `CC(=O)N1CCc2cc(-c3cncc(F)c3)cc(F)c21` [Example 18, 1-(7-fluoro-5-(5-fluoropyridine-3-yl)indolin-1-yl)-ethanone], the figures for the IC50 against human CYP11B2 [1] and against human CYP11B1 [2] were 0.015 µM and 1.1 µM, respectively.

As for `CC(=O)N1CCc2cc(-c3cncc(F)c3C)cc(F)c21` [Example 19, 1-(7-fluoro-5-(5-fluoro-4-methylpyridine-3-yl)indolin-1-yl)-ethanone], the figures for the half-inhibitory concentration (IC50) on human CYP11B2 [1] and at human CYP11B1 [2] were 0.001 µM and 0.1 µM, respectively.

For `CCc1c(F)cncc1-c1cc(F)c2c(c1)CCN2C(C)=O` [Example 20, 1-(5-(4-ethyl-5-fluoropyridine-3-yl)-7-fluoroindolin-1-yl)ethanone], the IC50 against human CYP11B2 [1] stood at 0.0016 µM; against human CYP11B1 [2], 0.5 µM.

`CCC(=O)N1CCc2cc(-c3cccnc3)ccc21` [Example 21, 1-propanoyl-5-pyridin-3-yl-2,3-dihydro-1H-indole]: the IC50 against human CYP11B1 [3] worked out at 4.74 µM; against human CYP11B2 [4], 0.228 µM.

For the compound `COc1ccc(C(=O)N2CCc3cc(-c4cccnc4)ccc32)cc1` [Example 25, 1-[(4-methoxy-phenyl)carbonyl]-5-pyridin-3-yl-2,3-dihydro-1H-indole], the IC50 against human CYP11B1 [3] is over 5 µM; on human CYP11B2 [4], 1.43 µM.

Consider `CC(=O)N1CCc2cc(-c3cccnc3)cc(Cl)c21` [Example 43, 1-(7-chloro-5-(pyridin-3-yl)indolin-1-yl)ethanone], for which the IC50 is 0.0074 µM at human CYP11B2 [1] and 0.57 µM against human CYP11B1 [2].

For `CC(=O)N1CCc2cc(-c3cccnc3)c(Cl)cc21` [Example 44, 1-(6-chloro-5-(pyridin-3-yl)indoline-1-yl)ethanone], the figures for the IC50 at human CYP11B2 [1] and on human CYP11B1 [2] were 0.64 µM and 0.47 µM, respectively.

Consider `CC(=O)N1CCc2cc(-c3cncc(F)c3)c(Cl)cc21` [Example 45, 1-(6-chloro-5-(5-fluoropyridine-3-yl)indolin-1-yl)ethanone], for which the IC50 on human CYP11B2 [1] was 0.81 µM; on human CYP11B1 [2] it was 0.76 µM.

For the compound `CCc1c(F)cncc1-c1cc2c(cc1Cl)N(C(C)=O)CC2` [Example 46, 1-(6-chloro-5-(4-ethyl-5-fluoropyridine-3-yl)indolin-1-yl)ethanone], the IC50 against human CYP11B2 [1] amounted to 0.62 µM; against human CYP11B1 [2], 0.78 µM.

Take `CC(=O)N1CCc2cc(-c3cccnc3)c(F)cc21` [Example 47, 1-(6-fluoro-5-(pyridin-3-yl)indon-1-yl)ethanone]: the IC50 at human CYP11B2 [1] stood at 0.18 µM; at human CYP11B1 [2], 0.38 µM.

At human CYP11B1 [2], `CC(=O)N1CCc2cc(-c3cncc(F)c3)c(F)cc21` [Example 48, 1-(6-fluoro-5-(5-fluoropyridin-3-yl)indolin-1-yl)ethanone] had an IC50 of over 10 µM.

Turning to `CCc1c(F)cncc1-c1cc2c(cc1F)N(C(C)=O)CC2` [Example 49, 1-(5-(4-ethyl-5-fluoropyridin-3-yl)-6-fluoroindolin-1-yl)ethanone], the IC50 was determined as 0.17 µM at human CYP11B2 [1] and 4 µM against human CYP11B1 [2].
